Results reported in patent publication US12338203B2 (TAISHO PHARMACEUTICAL CO., LTD., priority 2019, dated 2025).
Read-outs that look alike come from different tables or passages of the source.

Target: T1, human LPAR1 (Homo sapiens, UniProt Q92633)
T1 construct: expressed in transfected cells
Experiment: Test Example 1: antagonism against response of LPA-induced increase in intracellular Ca2+ concentration in RH7777 cells stably expressing human LPAR1
Assay type: cell-based
Outline: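 RH7777 cells stably transfected with human LPAR1 were preincubated with test compound 30 min at 37 °C in HBSS/20 mM HEPES/probenecid/0.05% BSA buffer, pH 7.4, then LPA-stimulated.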

[1] = RH7777 cells stably expressing human LPAR1, Fluo-4 fluorescence, FDSS6000, read-out: IC50 value (concentration producing 50% antagonism against response of LPA-induced increase in intracellular Ca2+ concentration) (converted)

T1 sequence (Q92633 whole entry): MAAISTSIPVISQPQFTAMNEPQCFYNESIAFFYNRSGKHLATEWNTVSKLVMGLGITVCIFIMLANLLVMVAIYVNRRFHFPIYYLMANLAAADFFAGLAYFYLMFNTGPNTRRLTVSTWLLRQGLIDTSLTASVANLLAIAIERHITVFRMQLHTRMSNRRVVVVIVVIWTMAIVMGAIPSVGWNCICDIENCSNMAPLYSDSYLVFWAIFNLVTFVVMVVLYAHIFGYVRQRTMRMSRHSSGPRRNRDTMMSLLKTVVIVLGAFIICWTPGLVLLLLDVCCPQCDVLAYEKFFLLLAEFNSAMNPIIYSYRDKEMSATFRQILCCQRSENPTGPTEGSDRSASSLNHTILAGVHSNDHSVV

Row | SMILES | IC50 [1] | IC50
1 | CCOc1cc([C@@H](C)N(CCC(F)(F)Cc2ccccc2)C(=O)NC2(C(=O)O)CCC2)cc(OCC)c1C1CC1 [Example 4-82] | 4.1 nM | –
2 | CCOc1cc(C(C)N(CCOCc2ccccc2)C(=O)NC2(C(=O)O)CC(OC)C2)c(Cl)c(OCC)c1C1CC1 (centres unmarked) [Example 5-200] | 0.548 nM | –
3 | CCOc1cc([C@@H](C)N(CCCC(F)(F)c2ccccc2)C(=O)NC2(C(=O)O)CCOCC2)cc(OCC)c1C(C)O (some centres unmarked) [Example 4-77] | 5.87 nM | –
4 | CCOc1cc(C(C)N(CCO[C@@H](C)c2ccccc2)C(=O)NC2(C(=O)OC)CC(OCC)C2)cc(OCC)c1C(C)=O (some centres unmarked) [Example 6-4] | 344 nM | –
5 | CCOc1cc([C@@H](C)N(CCCCc2ccccc2)C(=O)NC2(C(=O)O)CCOCC2)cc(OCC)c1C1(O)CC1 [Example 1-153] | 173 nM | –
6 | CCOc1cc(C(C)N(CCO[C@@H](C)c2ccccc2)C(=O)NC2(C(=O)OC)CC(F)(F)C2)cc(OCC)c1C(C)=O (some centres unmarked) [Example 6-6] | 435 nM | –
7 | CCOc1cc([C@@H](C)N(CCCCc2ccccc2)C(=O)NC2(C(=O)O)CCC2)cc(OCC)c1C [Example 1-24] | 3.54 nM | –
8 | CCOc1cc(C(C)N(CCCC(F)(F)c2ccccc2)C(=O)NC2(c3nn[nH]n3)CC2)cc(OCC)c1C(C)=O (centres unmarked) [Example 10-4] | 2.63 nM | –
9 | CCOc1cc(C(C)N(CCO[C@@H](C)c2ccccc2)C(=O)N[C@]2(C(=O)O)C[C@@H](OCC)C2)c(Cl)c(OCC)c1C(C)=O (some centres unmarked) [Example 5-218] | 1.99 nM | –
10 | COc1cc([C@@H](C)N(CCOCc2ccccc2)C(=O)NC2(C(=O)O)CC(OC)C2)cc(OC)c1C(C)=O (some centres unmarked) [Example 5-121] | 12.1 nM | –
11 | COc1cc(C(C)N(CCOCc2ccccc2)C(=O)NC2(C(=O)O)CCC2)c(Cl)c(OC)c1C(C)=O (centres unmarked) [Example 5-132] | 4.97 nM | –
12 | CC(c1cc(C(F)(F)F)cc(C(F)(F)F)c1)N(CCCCc1ccccc1)C(=O)NC1(C(=O)O)CC(F)(F)C1 (centres unmarked) [Example 5-24] | 75.8 nM | –
13 | CCOc1cc([C@@H](C)N(CCCCc2ccccc2)C(=O)NC2(C(=O)O)CC(OC)C2)c(Cl)c(OCC)c1C(C)=O (some centres unmarked) [Example 5-48] | 3.77 nM | –
14 | CCOc1cc(C(C)N(CCO[C@@H](C)c2ccccc2)C(=O)NC2(C(=O)OC(C)(C)C)CC2)c(Cl)c(OCC)c1C(C)=O (some centres unmarked) [Example 6-13] | 3040 nM | –
15 | CCOc1cc([C@@H](C)N(CCO[C@@H](C)c2ccccc2)C(=O)N[C@]2(C(=O)O)C[C@H](OC)C2)cc(OCC)c1C(C)=O [Example 4-122] | 4.53 nM | –
16 | CCOc1cc([C@@H](C)N(CCCCc2ccccc2)C(=O)NC2CCCC2C(=O)O)cc(OCC)c1C(C)=O (some centres unmarked) [Example 1-135] | 2.17 nM | –
17 | CCOc1c(C2CC2)ccc([C@@H](C)N(CCO[C@@H](C)c2ccccc2)C(=O)NC2(C(=O)O)CCC2)c1C [Example 4-166] | 2.02 nM | –
18 | CCOc1c(C(C)O)ccc([C@@H](C)N(CCCCc2ccccc2)C(=O)NC2(C(=O)O)CC(F)(F)C2)c1C (single isomer, unassigned) [Example 1-79] | 7.86 nM | –
19 | CCOc1cc([C@@H](C)N(CCCc2ccccc2F)C(=O)NC2(C(=O)O)CC(F)(F)C2)cc(OCC)c1C [Example 4-4, 1-({[(1R)-1-(3,5-Diethoxy-4-Methylphenyl)Ethyl][3-(2-Fluorophenyl) Propyl]Carbamoyl}Amino)-3,3-Difluorocyclobutane-1-Carboxylic Acid] | 9.64 nM | –

Row | SMILES | IC50 [1] | IC50
20 | CCOc1cc([C@@H](C)N(CCCCc2ccccc2)C(=O)NC2(C(=O)O)CC3(CCC3)C2)cc(OCC)c1C [Example 1-121] | 9.23 nM | –
21 | CCOc1cc(C(C)N(CCOCc2ccccc2)C(=O)NC2(C(=O)O)CC(OC)C2)c(Cl)c(OCC)c1C1CC1 (centres unmarked) [Example 5-206] | 0.853 nM | –
22 | CCOc1cc([C@@H](C)N(CCc2ccc(OC)cc2)C(=O)NC2(C(=O)O)CC(F)(F)C2)cc(OCC)c1C [Example 4-20] | 148 nM | –
23 | CCOc1c(C(C)=O)ccc([C@@H](C)N(CCO[C@@H](C)c2ccccc2)C(=O)NC2(C(=O)O)CCC2)c1C [Example 4-116] | 3.91 nM | –
24 | CCOC1CC(NC(=O)N(CCOC(C)c2ccccc2)C(C)c2cc(OC)c(C)c(OC)c2C)(C(=O)O)C1 (centres unmarked) [Example 5-170] | 6.25 nM | –
25 | CCOc1cc(C(C)N(CCCCc2ccccc2)C(=O)NC2CCC[C@@H]2C(=O)O)cc(OCC)c1C (some centres unmarked) [Example 1-137] | 102 nM | –
26 | CCOc1cc([C@@H](C)N(CCCCc2ccccc2)C(=O)NC2(C(=O)O)CC(OC)C2)cc(OCC)c1C(C)O (single isomer, unassigned) [Example 1-88] | 3.35 nM | –
27 | CCOc1cc([C@@H](C)N(CCCCc2ccccc2)C(=O)NC2(C(=O)O)CC(=O)C2)cc(OCC)c1C [Example 1-111] | 2.31 nM | –
28 | CCOc1cc(C(C)N(CCOCc2ccccc2)C(=O)NC2(C(=O)O)CCC2)c(C)c(OCC)c1C1CC1 (centres unmarked) [Example 5-192] | 0.47 nM | –
29 | CCOc1cc([C@@H](C)N(CCCCc2ccccc2)C(=O)NC2(C(=O)O)CC(F)(F)C2)cc(OCC)c1C1CC1 [Example 1-46, Sodium 1-({[(1R)-1-(4-Cyclopropyl-3,5-Diethoxyphenyl)Ethyl](4-Phenylbutyl) Carbamoyl}Amino)-3,3-Difluorocyclobutane-1-Carboxylate] | 1 nM | –
30 | CCOc1cc([C@@H](C)N(CCCCc2ccccc2)C(=O)N(C)C2(C(=O)O)CC(F)(F)C2)cc(OCC)c1C [Example 2-1, 1-[{[(1R)-1-(3,5-Diethoxy-4-Methylphenyl)Ethyl](4-Phenylbutyl) Carbamoyl}(Methyl)Amino]-3,3-Difluorocyclobutane-1-Carboxylic Acid] | 608 nM | –
31 | CCCOc1cc(OC)cc(C(C)N(CCCCc2ccccc2)C(=O)NC2(C(=O)O)CC(F)(F)C2)c1 (centres unmarked) [Example 5-16] | 8.97 nM | –
32 | CCOc1c(C(C)=O)ccc([C@@H](C)N(CCO[C@H](C)c2ccccc2)C(=O)NC2(C(=O)O)CC2)c1C [Example 4-147] | 11.6 nM | –
33 | CCCCC(NC(=O)N(CCCCc1ccccc1)Cc1cc(OC)c(C)c(OC)c1)C(=O)O (centres unmarked) [Example 1-3] | – | 1800 nM
34 | CCOc1cc([C@@H](C)N(CCCCc2ccc(OC)cc2)C(=O)NC2(C(=O)O)CC(F)(F)C2)cc(OCC)c1C [Example 4-19] | 60.8 nM | –
35 | CCOc1cc(C(C)N(CCCCc2ccccc2)C(=O)NC2(C(=O)O)CC(F)(F)C2)cc(OCC)c1C(C)=O (centres unmarked) [Example 1-29] | 3.12 nM | –
36 | CCOc1cc([C@@H](C)N(CCCC(F)(F)c2ccccc2)C(=O)N[C@]2(C(=O)O)C[C@@H](OC)C2)cc(OCC)c1C(C)=O [Example 4-64] | 2.69 nM | –
37 | CCOc1cc(C(C)N(CCOCc2ccccc2)C(=O)NC2(C(=O)O)CC(OCC)C2)c(Cl)c(OCC)c1C(C)=O (centres unmarked) [Example 5-220] | 2.13 nM | –
38 | COc1cc(C(C)N(CCCCc2ccccc2)C(=O)NC2(C(=O)O)CCC2)cc(OC)c1C (centres unmarked) [Example 1-23] | 13 nM | –

Now from value to compound, other results behind:

Row | IC50 [1] | SMILES | IC50
39 | 2.52 nM | CCOc1cc([C@@H](C)N(CCO[C@@H](C)c2ccccc2)C(=O)NC2(C(=O)O)CC(F)(F)C2)cc(OCC)c1C(C)=O [Example 4-117] | –
40 | 7.44 nM | CCOc1cc(C(C)N(CCCCc2ccccc2)C(=O)NC2(C(=O)O)CC(F)(F)C2)cc(OCC)c1OCC (centres unmarked) [Example 1-55] | –
41 | 1.44 nM | CCOc1cc(C(C)N(CCCCc2ccccc2)C(=O)NC2(C(=O)O)CC(OCC)C2)cc(OCC)c1C1CC1 (centres unmarked) [Example 1-101] | –
42 | 30.3 nM | COc1cc([C@@H](C)N(CCO[C@@H](C)c2ccccc2)C(=O)NC2(C(=O)O)CC(OC)C2)cc(OC)c1C(C)=O (some centres unmarked) [Example 5-122] | –
43 | 7.9 nM | COc1cc(C(C)N(CCOCc2ccccc2)C(=O)NC2(C(=O)O)CCC2)cc(OC)c1C(C)=O (centres unmarked) [Example 5-130] | –
44 | 64.8 nM | CCOc1cc([C@@H](C)N(CCCCc2ccccc2)C(=O)NCC2(C(=O)O)CCOCC2)cc(OCC)c1C(C)=O [Example 1-165] | –
45 | 2.5 nM | CCOc1c(C2CC2)ccc([C@@H](C)N(CCOC(C)c2ccccc2)C(=O)NC2(C(=O)O)CC(F)(F)C2)c1C (some centres unmarked) [Example 4-167] | –
46 | 191 nM | CCNc1cc([C@H](C)N(CCCCc2ccccc2)C(=O)NC2(C(=O)O)CC(F)(F)C2)cc(OCC)c1C(C)=O [Example 5-109] | –
47 | 0.948 nM | CCOc1cc([C@@H](C)N(CCO[C@@H](C)c2ccccc2)C(=O)NC2(C(=O)O)CC(F)(F)C2)cc(OCC)c1C1CC1 [Example 4-118] | –
48 | 5.4 nM | CCOc1cc(C(C)N(CCCCc2ccccc2)C(=O)NC2(C(=O)O)CC(F)(F)C2)cc(OCC)c1C1(O)CC1 (centres unmarked) [Example 1-38] | –
49 | 5.7 nM | CCOc1cc(C(C)N(CCO[C@@H](C)c2ccccc2)C(=O)N[C@]2(C(=O)O)C[C@H](OCC)C2)cc(OCC)c1C(C)O (some centres unmarked) [Example 4-133] | –
50 | 5.46 nM | CCOc1cc(C(C)N(CCCCc2ccccc2)C(=O)NC2(C(=O)O)CC(F)(F)C2)cc(OCC)c1C(=O)OC (centres unmarked) [Example 1-60] | –
51 | 2.51 nM | CCOc1cc([C@@H](C)N(CCO[C@@H](C)c2ccccc2)C(=O)NC2(C(=O)O)CC(OC)C2)c(C)c(OCC)c1C(C)=O (some centres unmarked) [Example 5-71] | –
52 | 47.4 nM | CCOc1cc([C@@H](C)N(CCO[C@@H](C)c2ccccc2)C(=O)NC2(C(=O)O)CCOCC2)cc(OCC)c1C(C)O (single isomer, unassigned) [Example 4-143] | –
53 | 2.62 nM | CCOc1c(C(C)=O)ccc([C@@H](C)N(CCO[C@H](C)c2ccccc2)C(=O)NC2(C(=O)O)CC(F)(F)C2)c1C [Example 4-151] | –
54 | 4.08 nM | CCOc1cc([C@@H](C)N(CCOCc2ccccc2)C(=O)NC2(C(=O)O)CC(OC)C2)cc(OCC)c1C(C)=O (some centres unmarked) [Example 4-107] | –
55 | 0.847 nM | CCOc1cc(C(C)N(CCOCc2ccccc2)C(=O)NC2(C(=O)O)CC(OCC)C2)c(Cl)c(OCC)c1C1CC1 (centres unmarked) [Example 5-213] | –
56 | 5.3 nM | CCOc1cc([C@@H](C)N(CCCC(F)(F)c2ccccc2)C(=O)N[C@]2(C(=O)O)C[C@@H](OC)C2)cc(OCC)c1C(C)=O [Example 4-65] | –
57 | 3.35 nM | CCOc1cc([C@@H](C)N(CCO[C@@H](C)c2ccccc2)C(=O)N[C@]2(C(=O)O)C[C@@H](OC)C2)cc(OCC)c1C(C)=O [Example 4-121] | –
58 | 6.66 nM | CCOc1c(C(C)=O)ccc([C@@H](C)N(CCO[C@@H](C)c2ccccc2)C(=O)NC2(C(=O)O)CC(OC)C2)c1C (some centres unmarked) [Example 4-130] | –
59 | 1.02 nM | COc1cc(C(C)N(CCOCc2ccccc2)C(=O)NC2(C(=O)O)CC(F)(F)C2)c(C)c(OC)c1C1CC1 (centres unmarked) [Example 5-146] | –
